One data set relates to T1, CCHNCS2.
T1 construct: full-length natural tandem fusion of two NCS domains; His-tagged (pET29b), E. coli, TALON purified (purification section prints CCHNCS1)
The data set can be described thus: CD spectroscopy at […] nm, (S)-norcoclaurine formation. It is filed as biochemical, Corydalis cheilanthifolia. The following applies: saturating dopamine; pH 7.3, 37 °C, 50 mM phosphate; 4-HPAA kinetics sigmoidal, table gives Hill coefficient for dopamine.

The next data set concerns T2, NDONCS3.
T2 construct: full-length single-domain polypeptide with signal peptide region retained; His-tagged (pET29b), E. coli, TALON purified
The description is as above. Type of data set: biochemical, Nandina domestica. The following applies: pH 7.3, 37 °C, 50 mM phosphate.

In another data set the test system is O=CCc1ccc(O)cc1. The data set can be described thus: purified protein. Type of data set: biochemical, Thalictrum flavum. The following applies: saturating dopamine, pH 7.3, 37 °C, 50 mM phosphate, 4-HPAA kinetics sigmoidal, table gives Hill coefficient for dopamine.

Like-named read-outs stand apart in the source and are kept apart here.

As to `O=CCc1ccc(O)cc1` [4-hydroxyphenylacetaldehyde], the Km with CCHNCS2 worked out at 1830 ± 697 µM; with NDONCS3 (saturating dopamine, 4-HPAA kinetics sigmoidal, table gives Hill coefficient for dopamine, read-out: Km (μM) (4-HPAA)) it was 480 ± 120 µM.
Turning to `NCCc1ccc(O)c(O)c1` [dopamine], the Km in the data set with NDONCS3 (saturating 4-HPAA, Hill fit by table (the source assigns sigmoidal kinetics to 4-HPAA), read-out: K’m (μM) (dopamine)) came out at 347 ± 35 µM.
What is called kcat is the number of substrate molecules converted per active site and unit of time at saturation. As for TFLNCS2Δ25 (Thalictrum flavum), in the data set with O=CCc1ccc(O)cc1, the Km is 494 ± 112 µM and the turnover number (kcat) was determined as 2.4 ± 0.2 s⁻¹.

The record behind these values is PMC5171800, “Genes encoding norcoclaurine synthase occur as tandem fusions in the Papaveraceae” (Scientific Reports, 2016).
